Values after ≈ are worked out from the molar mass of the structure shown. Read-outs that look alike come from different tables or passages of the source.
Columns and labels:
[1] = Cytotoxicity assay (HepG2, CellTiter-Blue cell viability); type: cell-based; conditions: human
Description: The cytotoxicity of compounds of present invention was assessed by HepG2 assay. HepG2 cells (ATCC HB-8065™) were seeded into 96-well plates (1.2×10^4 cells per well) and treated with compounds for 3 days, cell viability was measured at day 3 post compound treatment using the CellTiter-Blue® Cell Viability Assay (Promega, Cat. No. G8082). 20 μL of Cell titer blue buffer were added to each well of the cells, which were incubated for 3 hours at 37° C., and the fluorescence value was measured by a plate reader (Molecular Device SpectraMax M2). The CC50 value of each compound is plotted with GraphPad Prism using four parameter logistic equation.

A. baumannii (ATCC17978) = assay: 50% growth inhibitory concentration (IC50) determination assay; type: cell-based; conditions: Acinetobacter baumannii, ATCC17978, A. baumannii ATCC17978; Iso-Sensitest broth; 0.098 = detection limit
Summary of the method: (§1)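 First, DMSO stocks are diluted two-fold to give 50–0.097 μM final. Next, wells receive bacterial suspension in Iso-Sensitest broth for ~5×10^5 CFU/mL. Plates then sit at 35±2° C while OD at 600 nm is recorded every 20 min for 16 h.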

S. aureus (ATCC29213) = assay: as above; type: cell-based; conditions: Staphylococcus aureus, Iso-Sensitest broth, 0.098 = detection limit
Summary of the method: as §1

[2] = tested on: K. pneumoniae (ATCC10031); assay: as above; type: cell-based; conditions: Klebsiella pneumoniae, Iso-Sensitest broth, 0.098 = detection limit
Summary of the method: as §1

[3] = Lyophilisation solubility assay (LYSA); type: physicochemical; conditions: phosphate buffer, pH 6.5, aqueous buffer, thermodynamic from solid, 0.05 M phosphate buffer, HPLC-UV
Summary of the method: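 Read-out is HPLC-UV of the filtered solution and its 1/10 dilution. The dried residue of a 10 mM DMSO stock was redissolved in 0.05 M pH 6.5 phosphate buffer, then stirred 1 h, shaken 2 h and held overnight. Run in duplicate.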

[4] = HepG2 cells, 3 days treatment, "*": the detection limit, read-out: CC50

| Structure (SMILES) | CC50 at 3 days [1, 4] [nM] | IC50 (A. baumannii (ATCC17978)) [µM] | IC50 (S. aureus (ATCC29213)) [µM] | IC50 [2] [µM] | solubility thermodynamic [3] [µg/mL] | CC50 at 3 days [1] [nM] |
| --- | --- | --- | --- | --- | --- | --- |
| CNc1cc(F)cc2c1[nH]c1ncc(-c3cnc4c(c3)c(=O)c(C(=O)O)cn4CC3COCCN3)c(NC)c12 (centres unmarked) [Example 1.37] | 55500 | – | – | – | – | – |
| CNc1cc(F)c(F)c2c1[nH]c1ncc(-c3cnc4c(c3)c(=O)c(C(=O)O)cn4CC3COCCN3)c(N(C)C)c12 (centres unmarked) [Example 1.03] | 38100 | 0.437 | < 0.098 | < 0.098 | – | – |
| CNc1cc(F)c(F)c2c1[nH]c1ncc(-c3cnc4c(c3)c(=O)c(C(=O)O)cn4C)c(N3CCC4(CCN(C)C4)CC3)c12 [Example 1.231] | 37200 | 0.542 | < 0.098 | < 0.098 | – | – |
| CNc1cc(F)c(F)c2c1[nH]c1ncc(-c3cnc4c(c3)c(=O)c(C(=O)O)cn4C)c(N3CCC4(CCCN4C)C3)c12 (centres unmarked) [Example 1.239] | 32900 | 0.104 | < 0.098 | < 0.098 | – | – |
| [2H]C([2H])([2H])Nc1cc(F)c(F)c2c1[nH]c1ncc(-c3cnc4c(c3)c(=O)c(C(=O)O)cn4C3CCNC3)c(N(C)C)c12 (centres unmarked) [Example 1.64] | > 100000 | 0.32 | < 0.098 | < 0.098 | – | – |
| CNc1cc(F)c(F)c2c1[nH]c1ncc(-c3cnc4c(c3)c(=O)c(C(=O)O)cn4C)c(N3CC[C@@H](CO)C3)c12 [Example 1.165] | > 100000 | 0.336 | < 0.098 | < 0.098 | – | – |
| CNc1cc(F)cc2c1[nH]c1ncc(-c3cnc4c(c3)c(=O)c(C(=O)O)cn4C(C)(CO)CO)c(N3CCOCC3)c12 [Example 1.44] | > 100000 | – | – | – | – | – |
| CNc1cc(F)cc2c1[nH]c1ncc(-c3cnc4c(c3)c(=O)c(C(=O)O)cn4Cc3cnccn3)c(N3CCOCC3)c12 [Example 1.58] | > 100000 | 0.643 | < 0.098 | – | – | – |
| CNc1cc(F)c(F)c2c1[nH]c1ncc(-c3cnc4c(c3)c(=O)c(C(=O)O)cn4C)c(N3CCC(C)(CO)C3)c12 (centres unmarked) [Example 1.84] | 26800 | 0.326 | < 0.098 | 0.11 | – | – |
| CNc1cc(F)cc2c1[nH]c1ncc(-c3cnc4c(c3)c(=O)c(C(=O)O)cn4NC)c(N3CC4[C@@H](C3)OCCN4C)c12 (some centres unmarked) [Example 1.113] | > 100000 | 0.586 | < 0.098 | < 0.098 | – | – |
| CCNc1cc(F)cc2c1[nH]c1ncc(-c3cnc4c(c3)c(=O)c(C(=O)O)cn4C3CCNC3)c(N3CCOCC3)c12 (centres unmarked) [Example 1.34] | > 100000 | – | – | – | – | – |
| CNc1cc(F)c(F)c2c1[nH]c1ncc(-c3cnc4c(c3)c(=O)c(C(=O)O)cn4C3CCNC3)c(N3CCO[C@@H](C)C3)c12 (some centres unmarked) [Example 1.251] | > 100000 | – | – | – | – | – |
| CNc1cc(F)c(F)c2c1[nH]c1ncc(-c3cnc4c(c3)c(=O)c(C(=O)O)cn4C)c(N3C[C@H](O)[C@@H](F)C3)c12 [Example 1.82] | > 100000 | 0.748 | < 0.098 | < 0.098 | – | – |
| CNc1cc(F)cc2c1[nH]c1ncc(-c3cnc4c(c3)c(=O)c(C(=O)O)cn4C)c(N3CCC(O)(C(F)(F)F)C3)c12 (centres unmarked) [Example 1.25] | 62600 | – | – | – | – | – |
| CNc1cc(F)c(F)c2c1[nH]c1ncc(-c3cnc4c(c3)c(=O)c(C(=O)O)cn4C)c(N3CCCC(CN(C)C)C3)c12 (centres unmarked) [Example 1.80] | 27500 | 0.132 | < 0.098 | < 0.098 | – | – |
| CNc1cc(F)c(F)c2c1[nH]c1ncc(-c3cnc4c(c3)c(=O)c(C(=O)O)cn4CC3CCCN3)c(N3CCOCC3)c12 (centres unmarked) [Example 1.11] | > 100000 | 0.847 | – | – | – | – |
| CNc1cc(F)c(F)c2c1[nH]c1ncc(-c3cnc4c(c3)c(=O)c(C(=O)O)cn4CC3COCCN3)c(N3CCOCC3)c12 (centres unmarked) [Example 1.31] | 49000 | – | – | – | – | – |

| Structure (SMILES) | CC50 at 3 days [1, 4] [nM] | IC50 (A. baumannii (ATCC17978)) [µM] | IC50 (S. aureus (ATCC29213)) [µM] | IC50 [2] [µM] | solubility thermodynamic [3] [µg/mL] | CC50 at 3 days [1] [nM] |
| --- | --- | --- | --- | --- | --- | --- |
| CNc1cc(F)c(F)c2c1[nH]c1ncc(-c3cnc4c(c3)c(=O)c(C(=O)O)cn4C)c(N3CCC(N)(C(F)(F)F)C3)c12 (centres unmarked) [Example 1.27] | 28200 | 0.602 | < 0.098 | – | – | – |
| CNc1cc(F)c(F)c2c1[nH]c1ncc(-c3cnc4c(c3)c(=O)c(C(=O)O)cn4CC3CNCCO3)c(N3CCOCC3)c12 (centres unmarked) [Example 1.42] | > 100000 | – | – | – | – | – |
| CNc1c(Cl)c(F)cc2c1[nH]c1ncc(-c3cnc4c(c3)c(=O)c(C(=O)O)cn4C3CCNC3)c(N(C)C)c12 (centres unmarked) [Example 1.68] | 26500 | – | – | – | – | – |
| CNc1cc(F)c(F)c2c1[nH]c1ncc(-c3cnc4c(c3)c(=O)c(C(=O)O)cn4CC3COCCN3)c(N(C)CCOC)c12 (centres unmarked) [Example 1.41] | 90200 | – | – | – | – | – |
| CNc1cc(F)c(F)c2c1[nH]c1ncc(-c3cnc4c(c3)c(=O)c(C(=O)O)cn4C)c(N3C[C@@H](F)C[C@H]3CN(C)C)c12 [Example 7.01, 6-(4-((2S,4S)-2-((Dimethylamino)methyl)-4-fluoropyrrolidin-1-yl)-5,6-difluoro-8-(methylamino)-9H-pyrido[2,3-b]indol-3-yl)-1-methyl-4-oxo-1,4-dihydro-1,8-naphthyridine-3-carboxylic acid] | – | 0.28 | < 0.098 | < 0.098 | 330 (≈ 569 µM) | – |
| CCn1cc(C(=O)O)c(=O)c2cc(-c3cnc4[nH]c5c(NC)cc(F)c(F)c5c4c3N3CC4CC(C3)O4)cnc21 [Example 1.128] | – | – | – | – | – | 27100 |
| CNc1cc(F)cc2c1[nH]c1ncc(-c3cnc4c(c3)c(=O)c(C(=O)O)cn4NC)c(N3CCC(F)(CN(C)C)C3)c12 (centres unmarked) [Example 1.92] | – | 0.14 | < 0.098 | < 0.098 | 88 (≈ 153 µM) | – |
| CNc1cc(F)c(F)c2c1[nH]c1ncc(-c3cnc4c(c3)c(=O)c(C(=O)O)cn4C)c(N3CCC4(CN(C)C4)C3)c12 [Example 1.228] | > 100000 | – | – | – | – | – |
| CNc1cc(F)cc2c1[nH]c1ncc(-c3cnc4c(c3)c(=O)c(C(=O)O)cn4C3CCNC3)c(N3CCCC3)c12 (centres unmarked) [Example 1.259] | – | 0.533 | < 0.098 | < 0.098 | 17 (≈ 31.4 µM) | – |
| CNc1cc(F)cc2c1[nH]c1ncc(-c3cnc4c(c3)c(=O)c(C(=O)O)cn4NC)c(N3C[C@H]4CCN(C)[C@H]4C3)c12 [Example 3.17A] | – | 0.087 | < 0.098 | < 0.098 | 118 (≈ 212 µM) | – |
| CNc1cc(F)c(F)c2c1[nH]c1ncc(-c3cnc4c(c3)c(=O)c(C(=O)O)cn4C)c(N3CCCC(N(C)CCOC)C3)c12 (centres unmarked) [Example 1.197] | – | 0.245 | < 0.098 | < 0.098 | 407 (≈ 672 µM) | – |
| CNc1cc(F)cc2c1[nH]c1ncc(-c3cnc4c(c3)c(=O)c(C(=O)O)cn4C)c(N3CC[C@H]4CCN(C)[C@H]4C3)c12 [Example 3.18A] | – | 0.081 | < 0.098 | < 0.098 | 172 (≈ 310 µM) | – |
| CNc1cc(F)c(F)c2c1[nH]c1ncc(-c3cnc4c(c3)c(=O)c(C(=O)O)cn4C)c(N3CC4(CC4)C[C@H]3CN(C)C)c12 [Example 1.157] | – | 0.299 | < 0.098 | < 0.098 | 42 (≈ 71.5 µM) | – |
| CNc1cc(F)c(F)c2c1[nH]c1ncc(-c3cnc4c(c3)c(=O)c(C(=O)O)cn4C)c(N3CC4C(CN(C)C)CO[C@@H]4C3)c12 (some centres unmarked) [Example 1.88] | – | 0.289 | < 0.098 | < 0.098 | 485 (≈ 803 µM) | – |
| CNc1cc(F)cc2c1[nH]c1ncc(-c3cnc4c(c3)c(=O)c(C(=O)O)cn4C)c(N3CC[C@H](N(C)C)C3)c12 [Example 1.253] | – | 0.092 | < 0.098 | < 0.098 | 209 (≈ 395 µM) | – |
| CNc1cc(F)cc2c1[nH]c1ncc(-c3cnc4c(c3)c(=O)c(C(=O)O)cn4C)c(N3CCC(O)C3)c12 (centres unmarked) [Example 1.47] | > 100000 | – | – | – | – | – |
